Experimental data as given in US5574013A (Warner-Lambert Company, priority 1993, dated 1996).

Molecular target: T1, CCK B (Mus musculus, UniProt P56481)
T1 construct: from tissue; host or cells: cerebral cortex membranes of male CFLP mice
T1 sequence (P56481 1-453): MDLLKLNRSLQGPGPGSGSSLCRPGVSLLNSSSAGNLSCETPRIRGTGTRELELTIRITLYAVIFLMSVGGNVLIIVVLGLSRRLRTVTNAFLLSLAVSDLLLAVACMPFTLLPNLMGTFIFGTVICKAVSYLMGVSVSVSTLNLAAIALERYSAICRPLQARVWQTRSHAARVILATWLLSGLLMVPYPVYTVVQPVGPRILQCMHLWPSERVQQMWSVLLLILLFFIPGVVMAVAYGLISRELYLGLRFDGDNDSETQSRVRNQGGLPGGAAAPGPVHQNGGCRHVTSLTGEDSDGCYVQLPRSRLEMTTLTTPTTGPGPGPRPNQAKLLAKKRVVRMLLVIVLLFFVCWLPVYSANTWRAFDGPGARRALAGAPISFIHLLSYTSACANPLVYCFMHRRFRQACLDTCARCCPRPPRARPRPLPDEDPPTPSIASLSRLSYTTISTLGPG
Experiment: CCK receptor binding screening test, displacement of tritiated-pentagastrin from mouse cerebral cortical membranes
Conditions: Ki by Cheng-Prusoff; 2 nM tritiated-pentagastrin; mouse cerebral cortex membranes; read-out: Binding Affinity CCK B
Description: The biological activity of compounds of the present invention was evaluated employing an initial screening test which rapidly and accurately measured the binding of the tested compound to known CCK receptor sites. […] (See Hays et al, Neuropeptides 1:53-62, 1980; and Satuer et al, Science 208:1155-1156, 1980.
In this screening test, the cerebral cortices taken from male CFLP mice weighing between 30-40 g were dissected on ice, weighed, and homogenized in 10 volumes of 50 mM Tris-HCl buffer (pH 7.4 at 0°-4° C.). The resulting suspension was centrifuged, the supernate was discarded, and the pellet was washed by resuspension in Tris-HCl buffer followed by recentrifugation. The final pellet was resuspended in 20 volumes of […] Hepes buffer (pH 7.2 at 23° C.) containing 130 mM NaCl, […] KCl, […] MgCl2, […] EDTA, 5 mg/mL bovine albumin, and bacitracin (0.25 mg/mL).
In saturation studies, cerebral cortical membranes were incubated at 23° C. for 120 minutes in a final volume of 500 μL of Hepes incubation buffer (pH 7.2) together with 0.2-20 nM tritiated-pentagastrin (Amersham International, England).
In the displacement experiments, membranes were incubated with a single concentration (2 nM) of ligand, together with increasing concentrations ([…]) of competitive test compound. In each case, the nonspecific binding was defined as that persisting in the presence of the unlabeled octapeptide CCK26-33 (10^-6 M).
Following incubation, radioactivity bound to membranes was separated from that free in solution by rapid filtration through Whatman GF/B filters and washed three times with 4 mL of ice cold Tris-HCl buffer. Filters from samples incubated with tritiated-pentagastrin were placed in polyethylene vials with 4 mL of scintillation cocktail, and the radioactivity was estimated by liquid scintillation spectrometry (efficiency 47-52%).
The specific binding to CCK receptor sites was defined as the total bound tritiated-pentagastrin minus the amount of tritiated-pentagastrin bound in the presence of 10^-6 octapeptide, CCK26-33.
Saturation curves for specific tritiated-pentagastrin binding to mouse cortical membranes were analyzed by the methods of Scatchard (Ann. New York Acad. Sci. 51:660-672, 1949, and Hill (J. Physiol. 40:IV-VIII, 1910, to provide estimates for the maximum number of binding sites (Bmax) and the equilibrium dissociation constant (Ka).
In displacement experiments, inhibition curves were analyzed by either logit-log plots or the iterative curve fitting computer program ALLFIT (DeLean, Munson and Redbard, 1978) to provide estimates of the IC50 and nH (apparent Hill coefficient) values). (IC50 values were defined as the concentration of test compound required to produce 50% inhibition of specific binding.)
The inhibition constant (Ki) of the test compound was then calculated according to the Cheng-Prusoff equation: [formula] where [L] is the concentration of radiolabel and Ka is the equilibrium dissociation constant.
The Ki values for several representative compounds of the present invention are present in Table I.

Structure (SMILES)	Ki
C[C@](Cc1c[nH]c2ccccc12)(NC(=O)OC1C2CC3CC(C2)CC1C3)C(=O)NCCC(=O)O (stereo partly drawn) [Example 6, β-Alanine, N-[α-methyl-N-[(tricyclo[3.3.1.1^3,7]dec-2-yloxy)carbonyl]-D-tryptophyl]-]	4380 nM
COC(=O)CCCNC(=O)[C@@](C)(Cc1c[nH]c2ccccc12)NC(=O)OC1C2CC3CC(C2)CC1C3 (stereo partly drawn) [Example 1, Butanoic acid, 4-[[3-(1H-indol-3-yl)-2-methyl-1-oxo-2-[[(tricyclo[3.3.1.1^3,7]dec-2-yloxy)carbonyl]amino]propyl]amino]-, methyl ester (R)-]	82.1 nM
COC(=O)CCNC(=O)[C@H](CCSC)NC(=O)[C@@](C)(Cc1c[nH]c2ccccc12)NC(=O)OC1C2CC3CC(C2)CC1C3 (stereo partly drawn) [Example 12]	30 nM
CC(C)CC(CO)NC(=O)C(C)(Cc1c[nH]c2ccccc12)NC(=O)OC1C2CC3CC(C2)CC1C3 (stereo not drawn) [Example 8, Carbamic acid, [2-[[1-(hydroxymethyl)-3-methylbutyl]amino]-1-(1H-indol-3-ylmethyl)-1-methyl-2-oxoethyl]-, tricyclo[3.3.1.1^3,7]dec-2-yl ester, [R-(R*,S*)]-]	292 nM

Continued, values first:

Ki	Structure (SMILES)
1510 nM	C[C@](Cc1c[nH]c2ccccc12)(NC(=O)OC1C2CC3CC(C2)CC1C3)C(=O)NCC(=O)O (stereo partly drawn) [Example 4]
225 nM	CCC(C)C(CO)NC(=O)C(C)(Cc1c[nH]c2ccccc12)NC(=O)OC1C2CC3CC(C2)CC1C3 (stereo not drawn) [Example 9, Carbamic acid, [2-[[1-(hydroxymethyl)-2-methylbutyl]amino]-1-(1H-indol-3-ylmethyl)-1-methyl-2-oxoethyl]-, tricyclo[3.3.1.1^3,7]dec-2-yl ester, [1S-[1R*(S*), 2R*]]-]
299 nM	C[C@](Cc1c[nH]c2ccccc12)(NC(=O)OC1C2CC3CC(C2)CC1C3)C(=O)NCCC(=O)OCc1ccccc1 (stereo partly drawn) [Example 7, Propanoic acid, 3-[(3-(1H-indol-3-yl)-2-methyl-1-oxo-2-[[(tricyclo[3.3.1.1^3,7]dec-2-yloxy)carbonyl]amino]propyl]amino]--, phenylmethyl ester (R)-]
24 nM	CSCC[C@H](NC(=O)[C@@](C)(Cc1c[nH]c2ccccc12)NC(=O)OC1C2CC3CC(C2)CC1C3)C(=O)O (stereo partly drawn) [Example 11, N-[α-methyl-N-[(tricyclo[3.3.1.1^3,7]dec-2-yloxy)carbonyl]-D-tryptophyl]-L-methionine]
50.4 nM	C[C@](Cc1c[nH]c2ccccc12)(NC(=O)OC1C2CC3CC(C2)CC1C3)C(=O)NCC(=O)OCc1ccccc1 (stereo partly drawn) [Example 3, Gycine, N-[2-methyl-N-[(tricyclo[3.3.1.1^3,7]dec-2-yloxy)carbonyl]-D-tryptophyl]-, phenylmethyl ester]
